Experimental data published in patent US12472208B2 (priority 2013, dated 2025).

Columns and labels:
DNA = conditions: cited from earlier work
[1] = test system: bronchitis, colds, or flu; conditions: in vivo
[2] = test system: illness spreading through the player population; conditions: over 300 players, 2014 training period, about 4 hours per day, PHPG about 0.3 ppm; historically two to five players miss three to four days per week
[3] = test system: cold, flu, or other respiratory illness; conditions: in vivo

| Compound | mutagenicity / safety (DNA) | occurrence of bronchitis, colds, or flu [1] | adverse effects of exposure (subject; continuous exposure) | toxicity (subject; levels up to 7 ppm) | players missing training days due to illness during spring training [2] | subjects contracting cold, flu, or other respiratory illness [3] |
| --- | --- | --- | --- | --- | --- | --- |
| N#CSO [OSCN−, hypothiocyanate] | non-mutagenic |  |  |  |  |  |
| OO [PHPG, hydrogen peroxide] |  | did not suffer bronchitis, colds, or flu | no adverse effects | non-toxic | only one player missed one training day due to illness | none of the subjects contracted cold, flu, or other respiratory illness |
